Assay results published in PubChem BioAssay (NCI).
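Exposure lasted 48 hours, with cells grown in 96-well plates and compounds tested at five concentrations. GI50 = concentration required for 50% inhibition of growth. TGI is the concentration that stops growth completely.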

How the values were obtained:
Assay in all cases: growth of human tumour cells (NCI), 48 h
MDA-MB-231 breast = system: MDA-MB-231 breast
HCT-15 colon = system: HCT-15 colon
NCI-H522 lung = system: NCI-H522 lung
HCT-116 colon = system: HCT-116 colon
M14 melanoma = system: M14 melanoma
SK-MEL-5 melanoma = system: SK-MEL-5 melanoma
SW-620 colon = system: SW-620 colon
OVCAR-3 ovarian = system: OVCAR-3 ovarian
COLO 205 colon = system: COLO 205 colon
PC-3 prostate = system: PC-3 prostate
MCF7 breast = system: MCF7 breast
NCI-H460 lung = system: NCI-H460 lung
SK-OV-3 ovarian = system: SK-OV-3 ovarian
ACHN renal = system: ACHN renal
SN12C renal = system: SN12C renal
NCI-H226 lung = system: NCI-H226 lung
SF-295 CNS = system: SF-295 CNS
OVCAR-8 ovarian = system: OVCAR-8 ovarian
SF-539 CNS = system: SF-539 CNS
OVCAR-4 ovarian = system: OVCAR-4 ovarian
UO-31 renal = system: UO-31 renal
HOP-62 NSCLC = system: HOP-62 NSCLC
LOX IMVI melanoma = system: LOX IMVI melanoma
MALME-3M melanoma = system: MALME-3M melanoma
SF-268 CNS = system: SF-268 CNS
BT-549 breast = system: BT-549 breast
RXF 393 renal = system: RXF 393 renal

Q: With `Cc1cc(N(CCNc2ccnc3cc(Cl)ccc23)Cc2cccs2)nc(Cl)n1` as the compound, how does the GI50 (MDA-MB-231 breast) read?
A: 1.49 µM

Q: What about the TGI (MDA-MB-231 breast) of the same compound?
A: 3.06 µM

Q: What about the GI50 (HCT-15 colon) of the same compound?
A: 1.49 µM

Q: And the TGI (HCT-15 colon)?
A: 2.99 µM

Q: What about the GI50 (NCI-H522 lung) of the same compound?
A: 1.44 µM

Q: And the TGI (NCI-H522 lung)?
A: 3.55 µM

Q: And the GI50 (HCT-116 colon)?
A: 0.526 µM

Q: And the TGI (HCT-116 colon)?
A: 2 µM

Q: What about the GI50 (M14 melanoma) of the same compound?
A: 1.54 µM

Q: What about the TGI (M14 melanoma) of the same compound?
A: 3.19 µM

Q: What about the GI50 (SK-MEL-5 melanoma) of the same compound?
A: 1.74 µM

Q: And the TGI (SK-MEL-5 melanoma)?
A: 3.17 µM

Q: What about the GI50 (SW-620 colon) of the same compound?
A: 1.4 µM

Q: What about the TGI (SW-620 colon) of the same compound?
A: 3 µM

Q: What about the GI50 (OVCAR-3 ovarian) of the same compound?
A: 1.43 µM

Q: What about the TGI (OVCAR-3 ovarian) of the same compound?
A: 2.83 µM

Q: What about the GI50 (COLO 205 colon) of the same compound?
A: 1.72 µM

Q: What about the TGI (COLO 205 colon) of the same compound?
A: 3.54 µM

Q: What about the GI50 (PC-3 prostate) of the same compound?
A: 1.69 µM

Q: What about the TGI (PC-3 prostate) of the same compound?
A: 3.94 µM

Q: What about the GI50 (MCF7 breast) of the same compound?
A: 1.53 µM

Q: What about the TGI (MCF7 breast) of the same compound?
A: 3.13 µM

Q: And the GI50 (NCI-H460 lung)?
A: 1.13 µM

Q: And the TGI (NCI-H460 lung)?
A: 2.58 µM

Q: And the GI50 (SK-OV-3 ovarian)?
A: 1.8 µM

Q: And the TGI (SK-OV-3 ovarian)?
A: 3.24 µM

Q: What about the GI50 (ACHN renal) of the same compound?
A: 1.44 µM

Q: What about the TGI (ACHN renal) of the same compound?
A: 2.75 µM

Q: And the GI50 (SN12C renal)?
A: 1.58 µM

Q: And the TGI (SN12C renal)?
A: 3.19 µM

Q: What about the GI50 (NCI-H226 lung) of the same compound?
A: 1.83 µM

Q: And the TGI (NCI-H226 lung)?
A: 3.83 µM

Q: What about the GI50 (SF-295 CNS) of the same compound?
A: 1.32 µM

Q: What about the TGI (SF-295 CNS) of the same compound?
A: 2.77 µM

Q: And the GI50 (OVCAR-8 ovarian)?
A: 2.21 µM

Q: What about the TGI (OVCAR-8 ovarian) of the same compound?
A: 5.33 µM

Q: What about the GI50 (SF-539 CNS) of the same compound?
A: 1.83 µM

Q: And the TGI (SF-539 CNS)?
A: 3.29 µM

Q: What about the GI50 (OVCAR-4 ovarian) of the same compound?
A: 1.39 µM

Q: What about the TGI (OVCAR-4 ovarian) of the same compound?
A: 2.94 µM

Q: And the GI50 (UO-31 renal)?
A: 1.3 µM

Q: And the TGI (UO-31 renal)?
A: 2.6 µM

Q: And the GI50 (HOP-62 NSCLC)?
A: 1.65 µM

Q: What about the TGI (HOP-62 NSCLC) of the same compound?
A: 3.65 µM

Q: And the GI50 (LOX IMVI melanoma)?
A: 1.47 µM

Q: And the TGI (LOX IMVI melanoma)?
A: 2.89 µM

Q: And the GI50 (MALME-3M melanoma)?
A: 1.62 µM

Q: What about the TGI (MALME-3M melanoma) of the same compound?
A: 3.17 µM

Q: What about the GI50 (SF-268 CNS) of the same compound?
A: 1.83 µM

Q: What about the TGI (SF-268 CNS) of the same compound?
A: 4.04 µM

Q: And the GI50 (BT-549 breast)?
A: 1.87 µM

Q: What about the TGI (BT-549 breast) of the same compound?
A: 3.94 µM

Q: And the GI50 (RXF 393 renal)?
A: 1.45 µM

Q: And the TGI (RXF 393 renal)?
A: 2.92 µM
